Earlier results as cited in US20110092560A1, “TOPICAL COMPOSITION FOR CONTROLLING ECTOPARASITES IN DOGS AND CATS” (CEVA SANTE ANIMALE SA, priority 2008, published 2011).

Key:
[1] = mouse, in vivo, po
[2] = in vivo

## N#Cc1nn(-c2c(Cl)cc(C(F)(F)F)cc2Cl)c(N)c1[S+]([O-])C(F)(F)F (centres unmarked) [fipronil, Fipronil]
[1]
  metabolites eliminated in the faeces: 45-75%
  metabolites eliminated in the urine: 5-25%
  plasma half-life: 149 to 200 h
  tissues in which residues were found: fat, the adrenal glands, pancreas, skin, liver, kidney, and muscle
[2]
  carcinogenic, teratogenic or mutagenic potential: not carcinogenic, teratogenic or mutagenic
